Laboratory results taken from patent US20070225278A1, “Methods for treating cognitive and other disorders” (priority 2006, published 2007).

Tests used:
[1] = tested on: male Sprague Dawley CD rats; assay: Reversal of DOI induced deficits in PPI; conditions: significant at 17 mg/kg IP (3-30 mg/kg tested); DOI 3 mg/kg IP
rats = assay: 5-choice serial reaction time test (5CSRT), variable ITI; format: in vivo, rat; conditions: 1 mg/kg ip, 10 and 7 sec ITI, p<0.05 vs vehicle
Text: The 5-choice serial reaction time task is a behavioral assay that is used to measure attention and impulsivity in rats. Rats are trained to respond correctly to aperture illuminations reinforced to food rewards until they reach >70% correct responses during a 30-minute baseline session. Once animals reach baseline criteria, a variable stimulus duration (SD) and variable inter-trial interval (ITI) test can be used to manipulate normal baseline performance. […] When the ITI is increased from that used during baseline training impulsivity, as measured by premature responses, is increased. Compounds and manipulations that improve attention will improve performance and those that decrease impulsivity will decrease premature responses.
5CSRT: The test apparatus consisted of ten 25×25 cm aluminum chambers (Med Associates Inc., St. Albans, Vt.). The rear wall of each chamber was concavely curved, containing five accessible apertures, each 2.5 cm square, and 4 cm deep positioned 2 cm above floor level. […]
5CSRT Training: Prior to drug treatments, rats were trained to discriminate a brief visual stimulus light presented randomly in one of the five spatial locations. […] A single nose-poke in this opening during the period of illumination (signal period), or during the 5 second afterwards (limited hold) was reinforced by the delivery of a food pellet and a correct response was recorded. […]

[2] = Antidepressant-like effects (MED), Table 2; format: in vivo; conditions: minimal effective dose
Text: Table 2, below, summarizes the dose at which antidepressant-like effects are observed, the dose at which sexual dysfunction occurs, and the therapeutic window.

[3] = tested on: male Sprague Dawley CD rats; assay: Baseline PPI, compound administered alone; format: in vivo, rat; conditions: dose range that attenuates d-amphetamine and DOI deficits
Text: Inter-trial intervals averaged 15 s.

male Long-Evans rats = assay: Novel object recognition (NOR); format: in vivo, rat
Description: Animals: Adult male Sprague-Dawley rats (Charles River, Wilmington, Mass.) weighing 280-350 g at the time of surgery were used for all microdialysis experiments. Adult male Long-Evans rats (Charles River, Wilmington, Mass.) weighing 180-220 g were used for NOR studies. Rats were housed individually for recognition memory studies. All animals had free access to food and water and were group housed in the AAALAC-accredited facility that was maintained on a 12 h light dark cycle (lights on at 0600 h) for at least 1 week prior to surgery or behavioral testing. […]
Novel object recognition (NOR) training and testing was performed in a circular field (diameter ˜70 cm, 30 cm high) constructed out of plastic and containing bedding. […] Animal performance was tracked by video and monitored by an experimenter located outside of the testing room. […]
The visual recognition task was divided into 3 sessions—habituation, a sample trial and a choice trial. […] The amount of time exploring the objects was recorded for the entire trial. […]
The effect of treatment on object exploration during the sample trial was examined using a one-way ANOVA on total contact time followed by Fisher's LSD group mean pairwise comparisons. The amount of time exploring the novel and familiar objects across treatment groups was analyzed using a repeated measures ANOVA followed by Fisher's LSD post hoc comparisons. […]

## c1cc2c3c(c1)[C@H]1CCC[C@H]1N3CCNC2 [Compound 1]
[1]
  attenuation of DOI induced disruption in gating (PPI): significantly attenuated
rats
  premature responding: statistically significant decrease
[2]
  Antidepressant-like effects (MED mg/kg): 0.3 mg/kg
[3]
  effect on baseline PPI when administered alone: no effect
Male Long-Evans rats; 1 mg/kg orally
  effect on exploration during the sample trial: No significant effect
Male Long-Evans rats; 1 mg/kg orally 60 minutes prior to sample trial, 48 hour retention interval
  exploration of novel vs familiar object in choice trial (retention): significantly greater time spent exploring the novel than the familiar object
